For one test, the system named is E. faecium E980. In words: MIC assay. The class given is cell-based, Enterococcus faecium. The settings on record: E. faecium E980 VSE. On the procedure:
(§1) The antibacterial activity of the compounds was tested against a panel of bacteria, including Gram-positive bacteria (S. aureus ATCC29213, S. aureus USA300, S. aureus LIM-2, NR-45881, S. aureus HIP13419, NR-46413, E. faecium E155, E. faecium E7314, E. faecium E980, E. faecalis E1246, E. faecalis E7406 and S. pneumonia 153). The antibacterial activity of the compounds was further tested against S. aureus NY-155, NR-46236, S. aureus HIP12864, NR-46074, S. aureus 880 (BR-VRSA), NR-49120, E. faecalis E1246, E. faecalis E7604, as well as some Gram-negative bacteria (Escherichia coli and Klebsiella pneumoniae). Minimum inhibitory concentrations (MICs) in μg/mL were performed according to the CLSI guidelines. From glycerol stocks, bacterial strains were cultured on blood agar plates and incubated at 37° C. for 18 h. A single colony was transferred to tryptic soy broth (TSB) with 0.002% polysorbate 80 (p80). For the Enterococcus, VISA and VRSA strains, the cultures were grown at 37° C. until the optical density of the suspension reached a level equivalent to the 0.5 McFarland standard. The bacterial suspensions were diluted in TSB with 0.002% p80 to reach a bacterial cell density of 10^6 CFU/mL. In case of the other (vancomycin-sensitive) S. aureus strains, the direct colony suspension method was used. For these strains, after transfer of the colonies to TSB with 0.002% p80, they were immediately diluted to 10^6 CFU/mL, instead of incubated prior to this dilution. In the case of S. pneumonia, direct colony suspension was used by immediately suspending multiple colonies from fresh blood agar plates in TSB+0.002% p80 to an OD600 of 0.5 and subsequent dilution to 10^6 CFU mL^−1 in TSB+0.002% p80+5% lysed horse blood. Antibiotic dilutions for this strains were also made in TSB+0.002% p80+5% lysed horse blood. Both agar and microplates containing S. pneumonia were incubated at 37° C. with 5% CO2 for 24 h with constant shaking (600 rpm). […] The cultures were grown to exponential phase (OD600=0.5) at 37° C. […] In polypropylene 96-well microtiter plates, test compounds were added in biological triplicates and serial diluted 2-fold by transfer and mixing from one well to the next to achieve a final volume of 50 μL per well. An equal volume of bacterial suspension (10^6 CFU mL^−1) was added to the wells. The plates were sealed with breathable membranes and incubated at 37° C. for 24 h with constant shaking (600 rpm). In polypropylene microtiter plates, 100 μL of the test compounds was added to the first row in biological triplicates, and 50 μL of media was added to the other wells. The compounds were subjected to serial dilution by transfer and mixing of 50 μL from one well to the next. Subsequently, 50 μL of bacterial suspension (10^6 CFU/mL) was added to the wells. The plates were sealed with breathable membranes and incubated at 37° C. for 24 h with constant shaking (600 rpm). Positive growth control consisted of wells with bacterial suspension and without antibiotic. Negative growth control consisted of solely media without bacterial suspension or antibiotic. The MICs were determined from the median of a minimum of triplicates.

The next test has as its system MRSA USA300. In words: MIC assay in the presence of sheep serum. Format: cell-based, Staphylococcus aureus. The following applies: MRSA USA300, TSB + 0.002% p80 + 50% sheep serum. The protocol:
as §1
The activity of the compounds was further assessed against MRSA USA300 strain in the presence of sheep) serum in another MIC assay. The cultures that grew in the presence of serum used TSB+0.002% P80+50% sheep serum as growth media, as opposed to normal MICs done in only TSB+0.002% P80.

Another test relates to E. faecium E7314. Kind of test: microbe, parasite or virus in culture. The class given is cell-based, Enterococcus faecium. The settings on record: E. faecium E7314 VRE (VanB). The protocol: as §1
Another test relates to E. faecium E155. Kind of test: microbe, parasite or virus in culture. Format: cell-based, Enterococcus faecium. The following applies: E. faecium E155 VRE (VanA). The protocol: as §1
In test [1] the test system is S. aureus HIP12864, NR-46074. Kind of test: MIC assay. Format: cell-based, Staphylococcus aureus. The settings on record: S. aureus HIP12864, NR-46074 VISA. The protocol:
as §1

Test [2] has as its system S. aureus LIM-2, NR-25881. In words: MIC assay. Format: cell-based, Staphylococcus aureus. The settings on record: S. aureus LIM-2, NR-25881 VISA. The protocol:
as §1

A further test has as its system S. aureus ATCC29213. In words: MIC assay. The following applies: S. aureus ATCC29213 MSSA. The class given is cell-based, Staphylococcus aureus. On the procedure:
as §1

Test [3] deals with S. aureus 880 (BR-VRSA), NR-49120. In words: MIC assay. The class given is cell-based, Staphylococcus aureus. The settings on record: S. aureus 880, NR-49120 VRSA. The protocol:
as §1

The test system of test [4] is S. aureus NY-155, NR-46236. In words: MIC assay. The class given is cell-based, Staphylococcus aureus. The following applies: S. aureus NY-155, NR-46236 MRSA. The protocol:
as §1

A further test deals with E. faecalis E1246. In words: MIC assay. The class given is cell-based, Enterococcus faecalis. The protocol:
as §1

For another test, the system named is E. faecalis E7406. In words: microbe, parasite or virus in culture. The class given is cell-based, Enterococcus faecalis. The following applies: E. faecalis E7406 VRE (VanB). On the procedure:
as §1

The test system of a further test is E. faecalis E7604. In words: microbe, parasite or virus in culture. Format: cell-based, Enterococcus faecalis. The settings on record: E. faecalis E7604 VRE (vanB). The protocol:
as §1

Another test concerns S. pneumoniae 153. Kind of test: MIC assay. The class given is cell-based. The following applies: S. pneumoniae 153; TSB+0.002% p80+5% lysed horse blood. The protocol:
as §1

Test [5] concerns S. aureus HIP13419, NR-46413. In words: microbe, parasite or virus in culture. The class given is cell-based, Staphylococcus aureus. The settings on record: S. aureus HIP13419, NR-46413 VRSA. On the procedure: as §1
Another test deals with S. aureus USA300. Kind of test: microbe, parasite or virus in culture. Format: cell-based, Staphylococcus aureus. On the procedure:
as §1

Where [6] appears, read: E. faecalis E1246 VRE (VanA), Table 7.
Setting [7] is: E. faecalis E1246 VRE (vanA), Table 9.

Converted amounts (≈) assume the structure as drawn.

From patent publication US20230174584A1, “Antibiotic Compounds” (priority 2019, published 2023) come the findings set out here.

Take `CCCCN(CCCC)C(N)=Nc1ccc(CN[C@@]2(C)C[C@H](O[C@H]3[C@H](Oc4c5cc6cc4Oc4ccc(cc4Cl)[C@@H](O)[C@@H](NC(=O)[C@@H](CC(C)C)NC)C(=O)N[C@@H](CC(N)=O)C(=O)N[C@H]6C(=O)N[C@H]4C(=O)N[C@H](C(=O)N[C@H](C(=O)O)c6cc(O)cc(O)c6-c6cc4ccc6O)[C@H](O)c4ccc(c(Cl)c4)O5)O[C@H](CO)[C@@H](O)[C@@H]3O)O[C@@H](C)[C@H]2O)cc1` [Compound 11]: the MIC stood at 0.0625 µg/mL (≈ 0.0366 µM) in the test with E. faecium E980; 0.063 µg/mL with MRSA USA300; 0.5 µg/mL (≈ 0.293 µM) against E. faecium E7314; 32 µg/mL (≈ 18.7 µM) with E. faecium E155; 1 µg/mL (≈ 0.585 µM) in test [1]; 0.5 µg/mL (≈ 0.293 µM) in test [2]. The MIC is 0.125 µg/mL (≈ 0.0732 µM) in the test on S. aureus ATCC29213; 64 µg/mL (≈ 37.5 µM) in [3]; 0.063 µg/mL (≈ 0.0369 µM) in test [4]; above 128 µg/mL in the test with E. faecalis E1246 (setting [6]); above 128 µg/mL against E. faecalis E1246 (setting [7]); 8 µg/mL (≈ 4.68 µM) against E. faecalis E7406. Also, the MIC against E. faecalis E7604 is 8 µg/mL (≈ 4.68 µM); against S. pneumoniae 153, 0.063 µg/mL (≈ 0.0369 µM); in [5] it was 16 µg/mL (≈ 9.36 µM); in the test with S. aureus USA300 (MRSA USA300, TSB + 0.002% p80) it was 0.125 µg/mL; with S. aureus USA300 (S. aureus USA300 MRSA), 0.125 µg/mL (≈ 0.0732 µM).

Consider `CCCCCCCCCCN(CCCCCCCCCC)C(N)=Nc1ccc(CN[C@@]2(C)C[C@H](O[C@H]3[C@H](Oc4c5cc6cc4Oc4ccc(cc4Cl)[C@@H](O)[C@@H](NC(=O)[C@@H](CC(C)C)NC)C(=O)N[C@@H](CC(N)=O)C(=O)N[C@H]6C(=O)N[C@H]4C(=O)N[C@H](C(=O)N[C@H](C(=O)O)c6cc(O)cc(O)c6-c6cc4ccc6O)[C@H](O)c4ccc(c(Cl)c4)O5)O[C@H](CO)[C@@H](O)[C@@H]3O)O[C@@H](C)[C@H]2O)cc1` [Compound 13], for which the MIC in the test on E. faecium E980 was 4 µg/mL (≈ 2.13 µM); in the test with MRSA USA300, 64 µg/mL; in the test with E. faecium E7314, 4 µg/mL (≈ 2.13 µM); with E. faecium E155, 8 µg/mL (≈ 4.26 µM); in test [1] it was 16 µg/mL (≈ 8.52 µM); in test [2], 32 µg/mL (≈ 17 µM). Further, the MIC stood at 16 µg/mL (≈ 8.52 µM) against S. aureus ATCC29213; 8 µg/mL (≈ 4.26 µM) in test [3]; 16 µg/mL (≈ 8.52 µM) in test [4]; 32 µg/mL (≈ 17 µM) against E. faecalis E1246 (setting [6]); 32 µg/mL (≈ 17 µM) in the test with E. faecalis E1246 (setting [7]); 4 µg/mL (≈ 2.13 µM) in the test on E. faecalis E7406. The MIC in the test on E. faecalis E7604 stood at 4 µg/mL (≈ 2.13 µM); against S. pneumoniae 153 it was 2 µg/mL (≈ 1.07 µM); in [5], 8 µg/mL (≈ 4.26 µM); in the test on S. aureus USA300 (MRSA USA300, TSB + 0.002% p80), 16 µg/mL; with S. aureus USA300 (S. aureus USA300 MRSA), 16 µg/mL (≈ 8.52 µM).

With `CN[C@H](CC(C)C)C(=O)N[C@H]1C(=O)N[C@@H](CC(N)=O)C(=O)N[C@H]2C(=O)N[C@H]3C(=O)N[C@H](C(=O)N[C@H](C(=O)O)c4cc(O)cc(O)c4-c4cc3ccc4O)[C@H](O)c3ccc(c(Cl)c3)Oc3cc2cc(c3O[C@@H]2O[C@H](CO)[C@@H](O)[C@H](O)[C@H]2O[C@H]2C[C@](C)(NCc3ccc(N=C(N)NC/C=C(\C)CC/C=C(\C)CCC=C(C)C)cc3)[C@H](O)[C@H](C)O2)Oc2ccc(cc2Cl)[C@H]1O` [Compound 15], the MIC stood at 0.03125 µg/mL (≈ 0.0174 µM) in the test on E. faecium E980; 1 µg/mL with MRSA USA300; 0.01562 µg/mL (≈ 0.00867 µM) against E. faecium E7314; 0.125 µg/mL (≈ 0.0694 µM) in the test with E. faecium E155; 0.125 µg/mL (≈ 0.0694 µM) in test [1]; 0.125 µg/mL (≈ 0.0694 µM) in [2]. The MIC against S. aureus ATCC29213 stood at 0.03125 µg/mL (≈ 0.0174 µM); in test [3] it was 0.5 µg/mL (≈ 0.278 µM); in test [4] it was 0.125 µg/mL (≈ 0.0694 µM); against E. faecalis E1246 (setting [6]) it was 1 µg/mL (≈ 0.555 µM); with E. faecalis E1246 (setting [7]), 1 µg/mL (≈ 0.555 µM); with E. faecalis E7406, 0.03125 µg/mL (≈ 0.0174 µM). The MIC with E. faecalis E7604 is 0.031 µg/mL (≈ 0.0172 µM); against S. pneumoniae 153, at most 0.008 µg/mL; in [5], 0.125 µg/mL (≈ 0.0694 µM); with S. aureus USA300 (MRSA USA300, TSB + 0.002% p80), 0.063 µg/mL; against S. aureus USA300 (S. aureus USA300 MRSA) it was 0.0625 µg/mL (≈ 0.0347 µM).

Take `CN[C@H](CC(C)C)C(=O)N[C@H]1C(=O)N[C@@H](CC(N)=O)C(=O)N[C@H]2C(=O)N[C@H]3C(=O)N[C@H](C(=O)N[C@H](C(=O)O)c4cc(O)cc(O)c4-c4cc3ccc4O)[C@H](O)c3ccc(c(Cl)c3)Oc3cc2cc(c3O[C@@H]2O[C@H](CO)[C@@H](O)[C@H](O)[C@H]2O[C@H]2C[C@](C)(NCc3ccc(N=C(N)NC45CC6CC(CC(C6)C4)C5)cc3)[C@H](O)[C@H](C)O2)Oc2ccc(cc2Cl)[C@H]1O` [Compound 17]: the MIC was at most 0.008 µg/mL in the test with E. faecium E980; 0.125 µg/mL in the test with MRSA USA300; 0.016 µg/mL (≈ 0.00924 µM) against E. faecium E7314; 8 µg/mL (≈ 4.62 µM) against E. faecium E155; at most 0.016 µg/mL in test [1]; 0.125 µg/mL (≈ 0.0722 µM) in test [2]. The MIC against S. aureus ATCC29213 came out at 0.016 µg/mL (≈ 0.00924 µM); in test [3], 8 µg/mL (≈ 4.62 µM); in [4], 0.031 µg/mL (≈ 0.0179 µM); with E. faecalis E1246 (setting [6]) it was 16 µg/mL (≈ 9.24 µM); in the test on E. faecalis E1246 (setting [7]) it was 16 µg/mL (≈ 9.24 µM); against E. faecalis E7406 it was 0.125 µg/mL (≈ 0.0722 µM). Moreover, the MIC is 0.125 µg/mL (≈ 0.0722 µM) in the test with E. faecalis E7604; 0.016 µg/mL (≈ 0.00924 µM) in the test with S. pneumoniae 153; 8 µg/mL (≈ 4.62 µM) in [5]; 0.031 µg/mL in the test with S. aureus USA300 (MRSA USA300, TSB + 0.002% p80); 0.031 µg/mL (≈ 0.0179 µM) against S. aureus USA300 (S. aureus USA300 MRSA).
